# From ChEMBL document CHEMBL1201862, “PubChem BioAssay data set” (2004)
#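 Exposure lasted 48 hours, with cells grown in 96-well plates and compounds tested at five concentrations. At the GI50, growth is halved.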 The source made the active and inactive calls. No stated cut-off is given here; in the data, active = GI50 up to about 1.1 µM and inactive = higher.
# Assays:
# Experiment in all cases: NCI tumour cell line growth inhibition, 48 h
# XF498 = system: XF498
# HCT-15 = system: HCT-15
# SK-OV-3 = system: SK-OV-3
# HOP-92 = system: HOP-92
# SN12C = system: SN12C
# DLD-1 = system: DLD-1
# SNB-19 = system: SNB-19
# KM12 = system: KM12
# HOP-62 = system: HOP-62
# HL-60 = system: HL-60
# RPMI-8226 = system: RPMI-8226
# SNB-75 = system: SNB-75
# UACC-257 = system: UACC-257
# NCI-H226 = system: NCI-H226
# SNB-78 = system: SNB-78
# U-251 = system: U-251
# M14 = system: M14
# SW-620 = system: SW-620
# KM-20L2 = system: KM-20L2
# SK-MEL-2 = system: SK-MEL-2
# HCT-116 = system: HCT-116
# EKVX = system: EKVX
# TK-10 = system: TK-10
# SF-268 = system: SF-268
# DMS-114 = system: DMS-114
# HOP-18 = system: HOP-18
# MOLT-4 = system: MOLT-4
# HCC 2998 = system: HCC 2998
# NCI-H23 = system: NCI-H23
# A549 = system: A549
# OVCAR-5 = system: OVCAR-5
# HT-29 = system: HT-29
# SF-295 = system: SF-295
# ACHN = system: ACHN
# COLO 205 = system: COLO 205
# CAKI-1 = system: CAKI-1
# UACC-62 = system: UACC-62
# UO-31 = system: UO-31
# NCI-H460 = system: NCI-H460
# A498 = system: A498
# OVCAR-3 = system: OVCAR-3
# LXFL 529 = system: LXFL 529
# RXF 631 = system: RXF 631
# K562 = system: K562
# NCI-H522 = system: NCI-H522
# Malme-3M = system: Malme-3M
# IGROV-1 = system: IGROV-1
# OVCAR-4 = system: OVCAR-4
# SK-MEL-28 = system: SK-MEL-28
# CCRF-CEM = system: CCRF-CEM
# DMS-273 = system: DMS-273
# 786-0 = system: 786-0
# LOX IMVI = system: LOX IMVI
# OVCAR-8 = system: OVCAR-8
# SK-MEL-5 = system: SK-MEL-5
# SR = system: SR
# SF-539 = system: SF-539
# M19-MEL = system: M19-MEL
structure (smiles),measurement,setting,value
COc1ccc(CC/N=C2\CCC(C(=O)NCCc3ccc(OC)c(OC)c3)N2)cc1OC (stereo not drawn),GI50,XF498,> 100 µM (inactive)
same,GI50,HCT-15,> 100 µM
same,GI50,SK-OV-3,> 100 µM (inactive)
same,GI50,HOP-92,> 100 µM (inactive)
same,GI50,SN12C,> 100 µM (inactive)
same,GI50,DLD-1,> 100 µM (inactive)
same,GI50,SNB-19,> 100 µM (inactive)
same,GI50,KM12,> 100 µM (inactive)
same,GI50,HOP-62,> 100 µM (inactive)
same,GI50,HL-60,> 100 µM (inactive)
same,GI50,RPMI-8226,> 100 µM (inactive)
same,GI50,SNB-75,> 100 µM (inactive)
same,GI50,UACC-257,> 100 µM (inactive)
same,GI50,NCI-H226,> 100 µM (inactive)
same,GI50,SNB-78,> 100 µM (inactive)
same,GI50,U-251,> 100 µM (inactive)
same,GI50,M14,> 100 µM (inactive)
same,GI50,SW-620,> 100 µM (inactive)
same,GI50,KM-20L2,> 100 µM (inactive)
same,GI50,SK-MEL-2,> 100 µM (inactive)
same,GI50,HCT-116,> 100 µM (inactive)
same,GI50,EKVX,> 100 µM (inactive)
same,GI50,TK-10,> 100 µM (inactive)
same,GI50,SF-268,> 100 µM (inactive)
same,GI50,DMS-114,> 100 µM (inactive)
same,GI50,HOP-18,> 100 µM (inactive)
same,GI50,MOLT-4,> 100 µM (inactive)
same,GI50,HCC 2998,> 100 µM (inactive)
same,GI50,NCI-H23,> 100 µM (inactive)
same,GI50,A549,> 100 µM (inactive)
same,GI50,OVCAR-5,> 100 µM (inactive)
same,GI50,HT-29,> 100 µM (inactive)
same,GI50,SF-295,> 100 µM (inactive)
same,GI50,ACHN,> 100 µM (inactive)
same,GI50,COLO 205,> 100 µM (inactive)
same,GI50,CAKI-1,> 100 µM (inactive)
same,GI50,UACC-62,> 100 µM (inactive)
same,GI50,UO-31,> 100 µM (inactive)
same,GI50,NCI-H460,> 100 µM (inactive)
same,GI50,A498,> 100 µM (inactive)
same,GI50,OVCAR-3,> 100 µM (inactive)
same,GI50,LXFL 529,> 100 µM (inactive)
same,GI50,RXF 631,> 100 µM (inactive)
same,GI50,K562,> 100 µM (inactive)
same,GI50,NCI-H522,> 100 µM (inactive)
same,GI50,Malme-3M,> 100 µM (inactive)
same,GI50,IGROV-1,> 100 µM (inactive)
same,GI50,OVCAR-4,> 100 µM (inactive)
same,GI50,SK-MEL-28,> 100 µM (inactive)
same,GI50,CCRF-CEM,> 100 µM (inactive)
same,GI50,DMS-273,> 100 µM (inactive)
same,GI50,786-0,> 100 µM (inactive)
same,GI50,LOX IMVI,> 100 µM (inactive)
same,GI50,OVCAR-8,> 100 µM (inactive)
same,GI50,SK-MEL-5,> 100 µM (inactive)
CCCN(CCC)c1c([N+](=O)[O-])cc(S(N)(=O)=O)cc1[N+](=O)[O-] [ORYZALIN],GI50,XF498,16.6 µM (inactive)
same,GI50,HCT-15,17.5 µM
same,GI50,SK-OV-3,17.4 µM (inactive)
same,GI50,SN12C,17.4 µM (inactive)
same,GI50,DLD-1,19.1 µM (inactive)
same,GI50,SNB-19,19.7 µM (inactive)
same,GI50,KM12,17.8 µM (inactive)
same,GI50,HOP-62,17.2 µM (inactive)
same,GI50,RPMI-8226,26.7 µM (inactive)
same,GI50,SNB-75,18.3 µM (inactive)
same,GI50,UACC-257,18.9 µM (inactive)
same,GI50,NCI-H226,23.7 µM (inactive)
same,GI50,U-251,12 µM (inactive)
same,GI50,M14,16.9 µM (inactive)
same,GI50,SW-620,20.7 µM (inactive)
same,GI50,KM-20L2,19.3 µM (inactive)
same,GI50,SK-MEL-2,16.4 µM (inactive)
same,GI50,HCT-116,18 µM (inactive)
same,GI50,EKVX,21.3 µM (inactive)
same,GI50,SF-268,18.3 µM (inactive)
same,GI50,DMS-114,19 µM (inactive)
same,GI50,HOP-18,19.2 µM (inactive)
same,GI50,MOLT-4,20.7 µM (inactive)
same,GI50,HCC 2998,18.5 µM (inactive)
same,GI50,NCI-H23,16.1 µM (inactive)
same,GI50,A549,16.4 µM (inactive)
same,GI50,OVCAR-5,22.4 µM (inactive)
same,GI50,SR,23.5 µM (inactive)
same,GI50,HT-29,18.5 µM (inactive)
same,GI50,SF-295,16.7 µM (inactive)
same,GI50,ACHN,17.9 µM (inactive)
same,GI50,COLO 205,21.8 µM (inactive)
same,GI50,CAKI-1,13.6 µM (inactive)
same,GI50,UACC-62,18.3 µM (inactive)
same,GI50,UO-31,18.6 µM (inactive)
same,GI50,NCI-H460,14.6 µM (inactive)
same,GI50,SF-539,19.7 µM (inactive)
same,GI50,OVCAR-3,16.9 µM (inactive)
same,GI50,LXFL 529,16.1 µM (inactive)
same,GI50,RXF 631,18.6 µM (inactive)
same,GI50,K562,13.5 µM (inactive)
same,GI50,NCI-H522,16.7 µM (inactive)
same,GI50,Malme-3M,17.7 µM (inactive)
same,GI50,IGROV-1,7.29 µM (inactive)
same,GI50,OVCAR-4,14 µM (inactive)
same,GI50,SK-MEL-28,20.7 µM (inactive)
same,GI50,CCRF-CEM,16.8 µM (inactive)
same,GI50,DMS-273,18.8 µM (inactive)
same,GI50,786-0,16.7 µM (inactive)
same,GI50,LOX IMVI,17.5 µM (inactive)
same,GI50,OVCAR-8,19.1 µM (inactive)
same,GI50,M19-MEL,20.2 µM (inactive)
same,GI50,SK-MEL-5,19.3 µM (inactive)
